Laboratory results taken from patent publication US20250327191A1, “CORROSSION INHIBITOR COMPOSITIONS” (Tata Consultancy Services Limited, priority 2024, published 2025).

Assay: Corrosion inhibition on steel coupons immersed in 1M HCl for 2 hrs
Description: The corrosion inhibitor composition of the example—1 is tested for its corrosion inhibition effect on steel at two temperatures. The steel being the ferrous alloy has the following composition:
The steel coupons are initially abraded with various emery papers of decreasing coarseness i.e. 80, 150, 220, 400 grits to obtain a fine finish surface. The fine finished coupons are cleaned with acetone and then wrapped in paper to avoid any further oxidation and stored in a safe and dry place until further use. The 400 grit finished coupons are immersed in 100 ml 1M HCl solution for 2 hrs at room temperature and at […], to find out the corrosion rate. Similarly, the fine finished coupons are also immersed in 100 ml 1M HCl along with the composition of the example—1 with an effective concentration of inhibitor 200, 500 and 1000 ppm for 2 hrs at room temperatures. […] As, it is also essential for the corrosion inhibitors to perform well in case of higher temperatures. Further, the composition of example—1 is tested at higher temperatures. The below Table-2 provides the information on test results. It is evident from the Table-2 that the inhibition efficiencies at 60° C. is relatively higher than that of room temperature. The average corrosion rates (CR) at room temperature and 60° C. in 1 M HCl without inhibitor for 2 hrs immersion are 1.1081 cm/y and 16.42325 cm/y respectively. The inhibition efficiency (IE) is calculated using the formula: […]

With `Cc1ccc(C=O)s1` [5-Methyl-2-thiophenecarboxaldehyde, 5-methyl-2-thiophenecarboxaldehyde] the “IE (%)” value (200 ppm, no KI intensifier, 27 °C) was 54.03%, the “IE (%)” value (500 ppm, no KI intensifier, 27 °C) was 63.58% and the “IE (%)” value (1000 ppm, 0.1 wt % KI, 27 °C) was 84.07%. The “IE (%)” value (1000 ppm, 0.25 wt % KI, 27 °C) was 90.43%, the “IE (%)” value (1000 ppm, 0.5 wt % KI, 27 °C) was 92.36% and the “IE (%)” value (1000 ppm, 0.5 wt % KI, 60 °C) was 95.06%. For the same molecule, the “IE (%)” value (1000 ppm, no KI intensifier, 27 °C) was 72.65%.
